# Where no end group is shown, it is not given here. [ ]: non-standard residue; d: D form. Cit = NC(=O)NCCC[C@H](N)C(=O)O
# B1: IL-1: murine IL-1 used to stimulate MEFs (protein, UniProt P10749 118-269, looked up)
# Interleukin-1 beta: VPIRQLHYRLRDEQQKSLVLSDPYELKALHLNGQNINQQVIFSMSFVQGEPSNDKIPVALGLKGKNLYLSCVMKDGTPTLQLESVDPKQYPKKKMEKRFVFNKIEVKSKVEFESAEFPNWYISTSQAEHKPVFLGNNSGQDIIDFTMESVSS
# How the values were obtained:
# RA sera = test: IgG response to cyclic citrullinated FBG peptides in RA and control sera; format: binding, human; conditions: 20 RA and 20 control sera
# Text: (A) Peptides with sequences corresponding to the amino acid sequence of FBG were designed, with the addition of cysteine residues at the amino and carboxy termini and the exchange of arginine for citrulline residues at positions identified by LC-MS/MS. (B) IgG response to citrullinated FBG peptides and arginine containing control peptides in patients with rheumatoid arthritis (RA; n=20) and healthy controls (n=20). The 95th percentile of the control sera was used to determine positivity (dashed line). Mann-Whitney U test was used to calculate p values for differences between groups (n.s.=no significant difference, *=p<0.05 and **=p<0.01, ***=p<0.001, […]).
# With reference to FIG. 31, the antibody response in 20 RA and 20 control sera to 6 cyclic FBG peptides, encompassing citrulline residues was evaluated.
# [1] = system: RA synovial membrane cultures; test: Spontaneous cytokine synthesis in RA synovial membrane cultures incubated with FBG peptides; format: cell-based, human; conditions: for inhibition of cytokine synthesis at the highest concentrations / TNF and IL8 synthesis: RA synovial membrane cultures; for inhibition of cytokine synthesis at the highest concentrations: dose dependent, 25, 100 or 250 μM peptide, 24 h; for TNF and IL8 synthesis: spontaneous cytokine synthesis
# Protocol: RA membrane cells (representing a mixed population of all synovial cell types) were isolated from synovial membranes obtained from patients undergoing joint replacement surgery (Brennan (1989)). Synovial membrane tissue was digested in RPMI 1640 (GIBCO) containing 5% fetal calf serum (FCS) (GIBCO), 5 mg/ml collagenase type IV (Sigma) and 0 15 mg/ml DNAse type I (Sigma) and incubated at 37° C. for 2 h.
# Immediately after isolation, RA membrane cells were cultured at 1×10^5 cells/well in RPMI 1640 containing 10% (v/v) FBS and 100 U/ml penicillin/streptomycin in 96-well tissue culture plates. Cells were incubated for 24 h at 37° C. with no addition, buffer control (PBS, 1% BSA, 0.01% NaN3), or with 25 μm, 100 μM or 250 μM of each FBG spanning peptide.
# (§1) Supernatants were examined for the presence of the cytokines TNF-α, IL-6, and IL-8 by enzyme-linked immunosorbent assay (ELISA) according to the manufacturer's instructions (R&D systems). Absorbance was read on a spectrophotometric ELISA plate reader (Labsystems Multiscan Biochromic, Vantaa, Finland) and analyzed using the Ascent software program (Thermo Labsystems, Altrincham, UK).
# human macrophages = test: FBG or LPS induced cytokine synthesis in human macrophages pre-incubated with FBG peptides; format: cell-based; conditions: pre-incubation with 20 μM peptide, 24 h; for FBG mediated cytokine synthesis: then 1 μM whole FBG
# Protocol: (§2) After incubation the tissue was pipetted through a nylon mesh into a sterile beaker. The cells were then washed three times in complete medium (RPMI 1640 supplemented with 10% FCS). RA synovial fibroblasts were isolated from the mixed population of RA membrane cells by selection in DMEM (Bio-Whittaker) supplemented with 10% FBS, […], 100 U/ml penicillin, and streptomycin. Human monocytes were isolated from peripheral blood (London Blood Bank) and macrophages were derived from monocytes after differentiation for 4 days with 100 ng/ml of M-CSF.
# (§3) Macrophages were cultured at 1×10^5 cells/well in RPMI 1640 containing 5% (v/v) FBS and 100 U/ml penicillin/streptomycin in 96-well tissue culture plates for 24 h before stimulation. Cells were incubated for 24 h at 37° C. with no addition, 1.0 μM FBG, 1 ng/ml LPS or 1 or 20 μM FBG peptide. Where stated, cells were pre-incubated with 20 μM FBG peptides for 15 min.
# as §1
# [2] = system: primary human macrophages; test: Stimulation of primary human macrophages with each FBG peptide; format: cell-based; conditions: 1 or 20 μM FBG peptide, 24 h
# Protocol: as §2, §3, §1
# TLR2 = test: Cytokine synthesis in embryonic fibroblasts or macrophages from TLR2 deficient mice; format: cell-based
# Protocol: (§4) MEFs express high levels of mRNA of all 9 murine TLRs and are specifically and highly responsive to TLR ligand activation. […] MEFs were isolated from d13 embryos harvested from age-matched, pregnant female wild type, TLR2, TLR4 and null mice (as described in Todaro (1963)). Fibroblasts were cultured at 2×10^4 cells/well in DMEM containing 10% (v/v) FBS and 100 U/ml penicillin/streptomycin in 96-well tissue culture plates for 24 hours before stimulation.
# (§5) BMDMs were derived by aspirating the femurs of age matched female wild type, TLR2 and TLR4 null mice as described in Butler (1999)) and culturing the cells for 7 days in DMEM, 20% (v/v) FBS, 10 ml/L (v/v) antibiotic-antimycotic solution PSA, 50 μM β-Mercaptoethanol and 10 ng/ml M-CSF. Macrophages were then cultured at 1×10^5 cells/well in DMEM, 20% (v/v) FBS, 10 ml/L (v/v) antibiotic-antimycotic solution PSA, 50 μM β-Mercaptoethanol in 96-well tissue culture plates for 24 hours before stimulation.
# (§6) Cells were incubated for 24 hours at 37° C. with the indicated doses of tenascin-C and recombinant tenascin-C fragments (1.0 μM-1.0 nM). Cells were also stimulated where indicated with LPS (1 ng/ml for human macrophages, 10 ng/ml for human fibroblasts, RA membrane cells and HEKs, 100 ng/ml for MEFS and BMDMs and 10 ng/ml for HEKS), PAM3 (10 ng/ml for human macrophages, human fibroblasts, and HEKs, 100 ng/ml for MEFs and BMDMs), murine IL-1 (5 ng/ml for MEFS) and murine TNF-α (100 ng/ml for MEFS). Unless specifically stated otherwise rough LPS was used for in vitro studies.
# as §1, with “were subsequently” for “were”, “instructions.” for “instructions (R&D systems).”
# MyD88 = test: Cytokine synthesis in embryonic fibroblasts from MyD88 deficient mice; format: cell-based; conditions: for cytokine synthesis: MEFs from MyD88 deficient mice, 24 h; for responsiveness after re-transfection of wild type MyD88: MyD88 deficient MEFs, data not shown
# Protocol: as §4, §6
# as §1, with “were subsequently” for “were”, “instructions.” for “instructions (R&D systems).”
# TLR4 = test: Cytokine synthesis in embryonic fibroblasts or macrophages from TLR4 deficient mice; format: cell-based
# Protocol: as §4, §5, §6
# as §1, with “were subsequently” for “were”, “instructions.” for “instructions (R&D systems).”
# [3] = system: primary human macrophages; test: TNF synthesis in primary human macrophages stimulated with native or citrullinated FBG; format: cell-based; conditions: 0.1-1.0 μM, 24 h
# Protocol: Equal volumes of protein and 2× citrullination buffer (200 mM Tris HCl, pH 7.4, 20 mM CaCl2, 10 mM DTT) were mixed. 8.75 U rabbit skeletal PAD (product number P1584 from Sigma) per mg substrate protein was added and incubated for 3 hours at 37° C. or 2 hours at 50° C. Citrullination was confirmed by size shift visualized by coomassie blue staining of SDS PAGE or by AMC detection.
# Primary human macrophages were isolated as described above and cultured at 1×10^5 cells/well in RPMI 1640 containing 5% (v/v) FBS and 100 U/ml penicillin/streptomycin in 96-well tissue culture plates for 24 h before stimulation. Cells were incubated for 24 h at 37° C. with no addition (UN), different concentrations (uM) of native FBG (nFBG) or cit FBG (cFBG) or citrullination buffer alone (CIT) or cit buffer plus PAD enzyme (CIT+PAD).
# as §1, with “TNF-α” for “TNF-α, IL-6, and IL-8”
# [4] = system: human dermal fibroblasts (HDF); test: Cell adhesion to coated FBG, human dermal fibroblasts; format: cell-based; conditions: coated wells, 45 minutes, crystal violet
# Protocol: (§7) (A) The sequence identified to bind integrin ≢vβ3 is shown in white (Yokoyama et al., 2000). Within this sequence two Arginines (shown in black) were identified to be citrullinated. (B) Wells of a 96 well plate were coated with different concentrations of FBG, citrullinated FBG (cFBG), FBG incubated in buffer without Calcium (FBG —Ca^2+), or FBG incubated without PAD (FBG -PAD). As a positive control wells were coated with Fibronectin (FN) (1 ug/ml), and coating with BSA (10 mg/ml) served as negative control. Plates were incubated with human dermal fibroblasts (HDF) or synovial fibroblasts from RA patients (RAF) for 45 minutes and adhesion was measured by determining absorbance of attached cells after staining with crystal violet (0.1%). Data are shown as the mean of at least four independent experiments+s.e.m., *=p<0.05, **=p<0.01.
# [5] = system: synovial fibroblasts from RA patients (RAF); test: Cell adhesion to coated FBG, RA synovial fibroblasts; format: cell-based, human; conditions: coated wells, 45 minutes, crystal violet
# Protocol: as §7
molecule,measurement,setting,value
"CEMKL-Cit-PSNF-Cit-NLEGRRKRC (CEMKL[Cit]PSNF[Cit]NLEGRRKRC; not fully specified (bridges); printed as CEMKL-Cit-PSNF-Cit-NLEGRRKRC; also: cyclic, bridge not given here) [CIT209/214]",antibody response in RA sera and control sera,RA sera,detected in RA sera but not control sera
"CEMKLRPSNFRNLEG-Cit-Cit-KRC (CEMKLRPSNFRNLEG[Cit][Cit]KRC; not fully specified (bridges); printed as CEMKLRPSNFRNLEG-Cit-Cit-KRC; also: cyclic, bridge not given here) [CIT219/220]",antibody response in RA sera and control sera,RA sera,detected in RA sera but not control sera
"CVFLRRKNG-Cit-ENFYQNWC (CVFLRRKNG[Cit]ENFYQNWC; not fully specified (bridges); printed as CVFLRRKNG-Cit-ENFYQNWC; also: cyclic, bridge not given here) [CIT55]",antibody response in RA sera and control sera,RA sera,detected in RA sera but not control sera
ELRVDLRDHGETAFAVYDKFSVGDAKTRYK [Peptide 5],TNF synthesis,"[1]; RA membrane cells, 24 h with peptide",no effect
same,maximal inhibition of IL8 synthesis,"[1]; RA membrane cells, dose dependent",81%
same,FBG mediated cytokine synthesis,human macrophages,specifically blocked
same,cytokine synthesis,[2],induced cytokine synthesis in a dose dependent manner
KTRYKLKVEGYSGTAGDSMAYHNGRSFST [Peptide 6],cytokine synthesis,[2],induced cytokine synthesis in a dose dependent manner
Pam3Cys-Ser-Lys4 [reference compound],cytokine synthesis,TLR2,unresponsive
same,cytokine synthesis,MyD88,abolished
same,responsiveness after re-transfection of wild type MyD88,MyD88,restored the responsiveness
same,cytokine synthesis,TLR4,did respond
TIGLLYPFPKDCSQAMLNGDTTSGLYTIYL [Peptide 1],cytokine synthesis,[2],induced cytokine synthesis in a dose dependent manner
TNF-α [reference compound],cytokine synthesis,MyD88,unaffected
WIVFLRRKNGRENFYQNWKAYAAGFGDRRE [Peptide 3],inhibition of cytokine synthesis at the highest concentrations,[1],95%
same,TNF and IL8 synthesis,[1]; 24 h with peptide,inhibited
WYRNCHRVNLMGRYGDNNHSQGVNWFHWKG [Peptide 8],inhibition of cytokine synthesis at the highest concentrations,[1],56%
same,TNF and IL8 synthesis,[1]; 24 h with peptide,inhibited
same,cytokine synthesis in response to LPS,human macrophages; then 1 ng/ml LPS,blocked
same,FBG mediated cytokine synthesis,human macrophages,blocked
cFBG: FBG domain of tenascin-C citrullinated in vitro with PAD,cytokine (TNFα) synthesis compared with native FBG,[3],better at stimulating cytokine (e.g. TNFα) synthesis
same,adhesion of human dermal fibroblasts (HDF),[4],reduces adhesion
same,adhesion of synovial fibroblasts from RA joints (RAF),[5],reduces adhesion
B1,cytokine synthesis,TLR2,responsive
same,cytokine synthesis,MyD88,abolished
same,responsiveness after re-transfection of wild type MyD88,MyD88,restored the responsiveness
same,cytokine synthesis,TLR4,did respond
